Read-outs that look alike come from different tables or passages of the source.
Molecular target: Kv1.5 potassium channel (Homo sapiens, UniProt P22460)
Assay: Electrophysiological studies: whole-cell patch clamp of Kv1.5 currents in CHO cells
Format: cell-based
Conditions: Chinese hamster ovary cells stably expressing Kv1.5, whole-cell voltage clamp
Protocol: Electrophysiological recordings of potassium currents in Chinese hamster ovary cells stably expressing the gene construct for the Kv1.5 potassium channel subunit were performed using the whole cell configuration of the patch clamp technique (Hamill et al., Pflugers Archiv 391:85, 1981). Cell lines expressing Kv1.5 were prepared using standard techniques known to those skilled in the art. Cells were plated on glass coverslips at a density of 2×10^4 cells/coverslip and used within 24-48 hours. Solutions used for electrophysiological recordings were as follows. Extracellular bathing solutions typically contain (in mM) 132 NaCl, 5.4 KCl, 1.8 CaCl2, 0.8 MgCl2, 10 HEPES, 5 glucose at pH 7.3. […] The coverslips were placed in a small chamber (volume ˜200 μl) on the mechanical stage of an inverted microscope and perfused (approximately 2 ml/min) with extracellular recording solution. Drug was applied using a series of narrow-bore glass capillary tubes (inner diameter ˜100 μm) positioned approximately 200 μm from the cell.
As soon as the current recording were stable, a compound representative of the present invention was superfused over the cell until steady-state block was observed. Using this technique, the effects of the compound on peak and steady-state current were determined at progressively increasing compound concentrations.
The testing results of selected compounds from Table 2 using this assay and the techniques described above are reported in Table 3 as the percent inhibition of Kv1.5 potassium channel currents at a single concentration of 0.1 μM.

[1] = read-out: Peak current inhibition at 0.1 μM (%)
[2] = read-out: Steady-state Current Inhibition at 0.1 μM (%)

Kv1.5 potassium channel, sequence (P22460 whole entry): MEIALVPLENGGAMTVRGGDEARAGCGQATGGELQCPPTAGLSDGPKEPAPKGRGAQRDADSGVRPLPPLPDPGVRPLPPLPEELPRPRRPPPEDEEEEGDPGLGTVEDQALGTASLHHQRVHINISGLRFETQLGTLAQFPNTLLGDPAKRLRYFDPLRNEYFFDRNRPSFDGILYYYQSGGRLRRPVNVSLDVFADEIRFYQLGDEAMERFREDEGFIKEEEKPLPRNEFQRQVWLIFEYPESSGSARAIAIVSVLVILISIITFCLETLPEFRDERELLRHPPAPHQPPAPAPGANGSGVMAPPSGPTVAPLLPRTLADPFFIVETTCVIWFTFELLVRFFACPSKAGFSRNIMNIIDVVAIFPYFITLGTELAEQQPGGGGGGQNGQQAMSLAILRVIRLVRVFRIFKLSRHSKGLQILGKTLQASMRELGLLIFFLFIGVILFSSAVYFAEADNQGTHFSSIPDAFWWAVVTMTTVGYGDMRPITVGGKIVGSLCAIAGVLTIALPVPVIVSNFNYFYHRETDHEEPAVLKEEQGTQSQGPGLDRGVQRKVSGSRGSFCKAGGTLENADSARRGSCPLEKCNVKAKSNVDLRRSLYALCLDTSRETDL

Work on Cc1cccc(CN(C(=O)C[C@@H](C)c2ccccc2)c2ccc3c(c2)[C@@H](NS(=O)(=O)c2ccccc2)CCC3)n1 [Example 23] yielded an inhibition at 0.1 µM [1] of 75% and an inhibition at 0.1 µM [2] of 90%.

Compound CC(CC(=O)N(Cc1nccn1C)c1ccc2c(c1)C(NS(=O)(=O)c1ccc(F)cc1)CCC2)c1ccccc1 (centres unmarked) [Example 1] has an inhibition at 0.1 µM [1] of 42% and an inhibition at 0.1 µM [2] of 67%.

With C[C@H](CC(=O)N(Cc1nccn1C)c1ccc2c(c1)[C@@H](NS(=O)(=O)c1cccc(Cl)c1)CCC2)c1ccccc1 [Example 2] the inhibition at 0.1 µM [1] was 86% and the inhibition at 0.1 µM [2] was 96%.

Cc1ncc(CN(C(=O)C[C@@H](C)c2ccccc2)c2ccc3c(c2)[C@@H](NS(=O)(=O)c2ccccc2)CCC3)n1C(C)C [Example 21] gave an inhibition at 0.1 µM [1] of 58% and an inhibition at 0.1 µM [2] of 67%.

Compound C[C@@H](CC(=O)N(Cc1nccn1C)c1ccc2c(c1)[C@@H](NS(=O)(=O)c1cccc(Cl)c1)CCC2)c1ccccc1 [Example 6] has an inhibition at 0.1 µM [1] of 30% and an inhibition at 0.1 µM [2] of 81%.

In the case of C[C@@H](CC(=O)N(Cc1nccn1C)c1ccc2c(c1)[C@@H](NS(=O)(=O)c1ccc(F)cc1)CCC2)c1ccccc1 [Example 9], the inhibition at 0.1 µM [1] is reported as 53% and the inhibition at 0.1 µM [2] is reported as 61%.

With COc1ccc(S(=O)(=O)N[C@H]2CCCc3ccc(N(Cc4nccn4C)C(=O)C[C@@H](C)c4ccccc4)cc32)cc1 [Example 18] the inhibition at 0.1 µM [1] was 72% and the inhibition at 0.1 µM [2] was 84%.

C[C@@H](CC(=O)N(Cc1nccn1C)c1ccc2c(c1)[C@H](NS(=O)(=O)c1cccc(Cl)c1)CCC2)c1ccccc1 [Example 17] was tested, and the inhibition at 0.1 µM [1] was 84% and the inhibition at 0.1 µM [2] was 97%.

In the case of C[C@@H](CC(=O)N(Cc1nccn1C)c1ccc2c(c1)[C@H](NS(=O)(=O)c1cccs1)CCC2)c1ccccc1 [Example 19], the inhibition at 0.1 µM [1] is reported as 53% and the inhibition at 0.1 µM [2] is reported as 79%.

Cc1ncc(CN(C(=O)C[C@@H](C)c2ccccc2)c2ccc3c(c2)[C@@H](NS(=O)(=O)c2cccc(F)c2)CCC3)n1C(C)C [Example 20] gave an inhibition at 0.1 µM [1] of 52% and an inhibition at 0.1 µM [2] of 64%.

Work on C[C@H](CC(=O)N(Cc1nccn1C)c1ccc2c(c1)[C@@H](NS(=O)(=O)c1ccccc1)CCC2)c1ccccc1 [Example 4] yielded an inhibition at 0.1 µM [1] of 86% and an inhibition at 0.1 µM [2] of 89%.

Work on C[C@@H](CC(=O)N(Cc1nccn1C)c1ccc2c(c1)[C@@H](NS(=O)(=O)c1ccccc1)CCC2)c1ccccc1 [Example 5] yielded an inhibition at 0.1 µM [1] of 45% and an inhibition at 0.1 µM [2] of 78%.

C[C@@H](CC(=O)N(Cc1nccn1C)c1ccc2c(c1)[C@H](NS(=O)(=O)c1ccccc1)CCC2)c1ccccc1 [Example 11] was tested, and the inhibition at 0.1 µM [1] was 76% and the inhibition at 0.1 µM [2] was 91%.

In the case of Cc1cccc(CN(C(=O)C[C@H](C)c2ccccc2)c2ccc3c(c2)[C@H](NS(=O)(=O)c2ccccc2)CCC3)n1 [Example 25], the inhibition at 0.1 µM [1] is reported as 26% and the inhibition at 0.1 µM [2] is reported as 50%.

With C[C@@H](CC(=O)N(Cc1nccn1C)c1ccc2c(c1)[C@H](NS(=O)(=O)c1cccc(F)c1)CCC2)c1ccc(F)cc1 [Example 26] the inhibition at 0.1 µM [1] was 52% and the inhibition at 0.1 µM [2] was 76%.

In the case of Cc1cccc(CN(C(=O)C[C@@H](C)c2ccccc2)c2ccc3c(c2)[C@@H](NS(=O)(=O)c2ccc(F)c(Cl)c2)CCC3)n1 [Example 24], the inhibition at 0.1 µM [1] is reported as 48% and the inhibition at 0.1 µM [2] is reported as 65%.

C[C@@H](CC(=O)N(Cc1nccn1C)c1ccc2c(c1)[C@H](NS(=O)(=O)c1cccc(F)c1)CCC2)c1ccccc1 [Example 16] gave an inhibition at 0.1 µM [1] of 88% and an inhibition at 0.1 µM [2] of 100%.

C[C@H](CC(=O)N(Cc1nccn1C)c1ccc2c(c1)[C@@H](NS(=O)(=O)c1ccc(F)c(Cl)c1)CCC2)c1ccccc1 [Example 3] gave an inhibition at 0.1 µM [1] of 84% and an inhibition at 0.1 µM [2] of 93%.

C[C@H](CC(=O)N(Cc1nccn1C)c1ccc2c(c1)[C@@H](NS(=O)(=O)c1cccc(F)c1)CCC2)c1ccccc1 [Example 12] gave an inhibition at 0.1 µM [1] of 68% and an inhibition at 0.1 µM [2] of 85%.
